Two compounds from US6579519B2, “Sustained release and long residing ophthalmic formulation and the process of preparing the same” (Registrar, University of Delhi, priority 2000, dated 2003) can be followed below.

SMILES strings stand for the structures.

A short description of this data set: Maximum drug dissolved in polymeric micelles. It is filed as physicochemical. Particulars: room temperature. As for the experimental part:
In 100 mg of the lyophilized powder of the polymeric micelles nanoparticles, an alcoholic solution of indomethacin ([Indomethacin]=33 mg/ml) was added with constant stirring to get clear solution of polymeric micelles containing the drug of desired concentration dispersed in aqueous buffer. […] The drug loaded polymeric micelles was then lyophilized to get dry powder for subsequent use.
In 100 mg of dry powder of polymeric micelles, an alcoholic solution of nimesulide ([nimesulide]=10 mg/ml) was added with constant stirring to get clear solution. […] The drug loaded micelles was then lyophilized to get dry powder for subsequent use.

Regarding `COc1ccc2c(c1)c(CC(=O)O)c(C)n2C(=O)c1ccc(Cl)cc1` [indomethacin, 1-(4 chlorobenzoyl)-5 methoxy-2-methyl-1H-indole-3acetic acid], the “Maximum of the drug dissolved in polymeric micelles” value is reported as 10 % w/w.

Regarding `CS(=O)(=O)Nc1ccc([N+](=O)[O-])cc1Oc1ccccc1` [nimesulide, N-(4-nitro-2 phenoxyphenyl) methanesulphonamide], the “Maximum of the drug dissolved in polymeric micelles” value is listed as 8 % w/w.
